Assay results taken from ChEMBL document CHEMBL1201862, “PubChem BioAssay data set” (2004).
Activity calls are given as the source filed them.

Test system: not listed separately
Assay: NIH-3T3 fibroblast cytotoxicity, dose response, cytotoxicity control, cell-based, fluorescence, Alamar Blue, secondary assay (AID 2327);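 note: NIH-3T3 mouse fibroblasts cultured with fluconazole at 8 µg/mL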
Format: functional
Details: not given

Compound	EC50
O=C(Cn1cnc2c(nnn2Cc2ccc(F)cc2)c1=O)NC1CCCC1	> 150 µM (inactive)
CCCc1cc(O)nc(SCC(=O)Nc2ccc(Br)cc2Br)n1	84.5 µM (active)
C=CCn1c(SCc2nc(O)c3ccccc3n2)nnc1-c1cc2cc(Cl)ccc2o1	> 150 µM (inactive)
O=C(CCNC(=O)c1ccc(Br)cc1)Nc1nccs1	23.9 µM (inconclusive)
Cc1ccc(S(=O)(=O)/N=C(/c2ccccc2)N2CCOCC2)c(C)c1	> 160 µM (inconclusive)

Test system: not listed separately
Assay: C. albicans growth with fluconazole, confirmation, fluorescence, retest (AID 2467)
Format: functional, cell-based
Details: not given

Compound	EC50
O=C(Cn1cnc2c(nnn2Cc2ccc(F)cc2)c1=O)NC1CCCC1	> 38 µM (not active)
CCCc1cc(O)nc(SCC(=O)Nc2ccc(Br)cc2Br)n1	1.38 µM (active)
C=CCn1c(SCc2nc(O)c3ccccc3n2)nnc1-c1cc2cc(Cl)ccc2o1	0.052 µM (active)
O=C(CCNC(=O)c1ccc(Br)cc1)Nc1nccs1	> 38 µM (not active)
Cc1ccc(S(=O)(=O)/N=C(/c2ccccc2)N2CCOCC2)c(C)c1	> 38 µM (not active)

Test system: not listed separately
Assay: inhibitors of intracellular T. cruzi replication, confirmation, NIH3T3 host cells, beta-gal luminescence (AID 2044);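 note: intracellular parasites grown in NIH/3T3 mouse fibroblasts as host cells; luminescent beta-galactosidase reporter signal from transgenic T. cruzi replicating inside host cells; inhibitors lower the luminescence signal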
Format: functional, cell-based
Details: not given

Compound	EC50
Cc1cc(C)c(C#N)c(SCC(=O)c2ccc(Cl)cc2Cl)n1	169 nM (active)

Biological target: Cytochrome P450 3A4 (Homo sapiens, UniProt P08684);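 note: CYP3A4 tested as one member of a cytochrome P450 panel screen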
Sequence (P08684 whole entry): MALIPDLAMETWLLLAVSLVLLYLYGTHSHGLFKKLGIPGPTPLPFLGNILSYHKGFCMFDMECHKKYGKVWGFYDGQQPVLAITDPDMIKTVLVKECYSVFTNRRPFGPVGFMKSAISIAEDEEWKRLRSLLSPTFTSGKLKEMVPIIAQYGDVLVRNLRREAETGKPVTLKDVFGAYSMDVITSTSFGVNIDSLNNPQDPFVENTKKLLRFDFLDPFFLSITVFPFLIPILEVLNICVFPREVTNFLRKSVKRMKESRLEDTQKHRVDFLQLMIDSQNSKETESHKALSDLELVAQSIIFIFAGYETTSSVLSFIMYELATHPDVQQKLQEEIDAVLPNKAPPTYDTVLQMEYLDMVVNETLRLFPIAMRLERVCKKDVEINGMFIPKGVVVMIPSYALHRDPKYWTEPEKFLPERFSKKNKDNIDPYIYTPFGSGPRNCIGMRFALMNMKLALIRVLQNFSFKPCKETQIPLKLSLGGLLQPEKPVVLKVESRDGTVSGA
Assay: not given
Details: not given

Compound	AC50
Cc1cc(C)c(C#N)c(SCC(=O)c2ccc(Cl)cc2Cl)n1	17.8 µM (inconclusive)

Test system: H9c2;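 note: confirmatory concentration-response retest of ultra-high-throughput screening hits for modulation of myocardial damage; cell death induced by hydrogen peroxide oxidative stress; compound pretreatment for 60 min then peroxide exposure for 2 h; potency is for protecting the cells against peroxide damage rather than for killing them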
Assay: cells
Format: functional, cell-based
Details: Rattus norvegicus, H9c2, Myocardium

Compound	IC50
Cc1ccc(NC(=O)c2cc(=O)c3ccccc3o2)cc1S(=O)(=O)N1CCOCC1	> 79 µM (inactive)
Cn1c2c(c(=O)n(C)c1=O)C(c1ccc(Br)cc1)Nc1ccccc1O2 (stereo not given)	25.7 µM (active)
CN(C(=O)c1sc2nc(N3CCOCC3)c3c(c2c1N)CCCC3)c1ccccc1	> 79 µM (inactive)
COc1ccc(C2CCCCCN2C(=O)C2CCN(S(=O)(=O)c3cccc(C(C)=O)c3)CC2)cc1 (stereo not given)	> 79 µM (inactive)
COc1cc(CN2C[C@@H](CO)O[C@@H](n3cnc4c(Nc5ccccc5)ncnc43)C2)cc(OC)c1OC	9.14 µM (active)
Cc1nn(-c2ccccc2)nc1C(=O)Nc1cccc(C(=O)NC2CC2)c1	> 79 µM (inactive)

Test system: not listed separately
Assay: cytotoxicity toward NIH3T3 fibroblasts, dose response, counter-screen, cell-based, ATP luminescence, mouse fibroblasts (AID 2010);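 note: cells exposed to compound for about 90 hours before reading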
Format: functional
Details: not given

Compound	EC50
Cc1cc(C)c(C#N)c(SCC(=O)c2ccc(Cl)cc2Cl)n1	> 60 µM (not active)

Biological target: T1, Fatty acid synthase (Homo sapiens, UniProt P49327)
T1 sequence (P49327 whole entry, the tested form may be a part): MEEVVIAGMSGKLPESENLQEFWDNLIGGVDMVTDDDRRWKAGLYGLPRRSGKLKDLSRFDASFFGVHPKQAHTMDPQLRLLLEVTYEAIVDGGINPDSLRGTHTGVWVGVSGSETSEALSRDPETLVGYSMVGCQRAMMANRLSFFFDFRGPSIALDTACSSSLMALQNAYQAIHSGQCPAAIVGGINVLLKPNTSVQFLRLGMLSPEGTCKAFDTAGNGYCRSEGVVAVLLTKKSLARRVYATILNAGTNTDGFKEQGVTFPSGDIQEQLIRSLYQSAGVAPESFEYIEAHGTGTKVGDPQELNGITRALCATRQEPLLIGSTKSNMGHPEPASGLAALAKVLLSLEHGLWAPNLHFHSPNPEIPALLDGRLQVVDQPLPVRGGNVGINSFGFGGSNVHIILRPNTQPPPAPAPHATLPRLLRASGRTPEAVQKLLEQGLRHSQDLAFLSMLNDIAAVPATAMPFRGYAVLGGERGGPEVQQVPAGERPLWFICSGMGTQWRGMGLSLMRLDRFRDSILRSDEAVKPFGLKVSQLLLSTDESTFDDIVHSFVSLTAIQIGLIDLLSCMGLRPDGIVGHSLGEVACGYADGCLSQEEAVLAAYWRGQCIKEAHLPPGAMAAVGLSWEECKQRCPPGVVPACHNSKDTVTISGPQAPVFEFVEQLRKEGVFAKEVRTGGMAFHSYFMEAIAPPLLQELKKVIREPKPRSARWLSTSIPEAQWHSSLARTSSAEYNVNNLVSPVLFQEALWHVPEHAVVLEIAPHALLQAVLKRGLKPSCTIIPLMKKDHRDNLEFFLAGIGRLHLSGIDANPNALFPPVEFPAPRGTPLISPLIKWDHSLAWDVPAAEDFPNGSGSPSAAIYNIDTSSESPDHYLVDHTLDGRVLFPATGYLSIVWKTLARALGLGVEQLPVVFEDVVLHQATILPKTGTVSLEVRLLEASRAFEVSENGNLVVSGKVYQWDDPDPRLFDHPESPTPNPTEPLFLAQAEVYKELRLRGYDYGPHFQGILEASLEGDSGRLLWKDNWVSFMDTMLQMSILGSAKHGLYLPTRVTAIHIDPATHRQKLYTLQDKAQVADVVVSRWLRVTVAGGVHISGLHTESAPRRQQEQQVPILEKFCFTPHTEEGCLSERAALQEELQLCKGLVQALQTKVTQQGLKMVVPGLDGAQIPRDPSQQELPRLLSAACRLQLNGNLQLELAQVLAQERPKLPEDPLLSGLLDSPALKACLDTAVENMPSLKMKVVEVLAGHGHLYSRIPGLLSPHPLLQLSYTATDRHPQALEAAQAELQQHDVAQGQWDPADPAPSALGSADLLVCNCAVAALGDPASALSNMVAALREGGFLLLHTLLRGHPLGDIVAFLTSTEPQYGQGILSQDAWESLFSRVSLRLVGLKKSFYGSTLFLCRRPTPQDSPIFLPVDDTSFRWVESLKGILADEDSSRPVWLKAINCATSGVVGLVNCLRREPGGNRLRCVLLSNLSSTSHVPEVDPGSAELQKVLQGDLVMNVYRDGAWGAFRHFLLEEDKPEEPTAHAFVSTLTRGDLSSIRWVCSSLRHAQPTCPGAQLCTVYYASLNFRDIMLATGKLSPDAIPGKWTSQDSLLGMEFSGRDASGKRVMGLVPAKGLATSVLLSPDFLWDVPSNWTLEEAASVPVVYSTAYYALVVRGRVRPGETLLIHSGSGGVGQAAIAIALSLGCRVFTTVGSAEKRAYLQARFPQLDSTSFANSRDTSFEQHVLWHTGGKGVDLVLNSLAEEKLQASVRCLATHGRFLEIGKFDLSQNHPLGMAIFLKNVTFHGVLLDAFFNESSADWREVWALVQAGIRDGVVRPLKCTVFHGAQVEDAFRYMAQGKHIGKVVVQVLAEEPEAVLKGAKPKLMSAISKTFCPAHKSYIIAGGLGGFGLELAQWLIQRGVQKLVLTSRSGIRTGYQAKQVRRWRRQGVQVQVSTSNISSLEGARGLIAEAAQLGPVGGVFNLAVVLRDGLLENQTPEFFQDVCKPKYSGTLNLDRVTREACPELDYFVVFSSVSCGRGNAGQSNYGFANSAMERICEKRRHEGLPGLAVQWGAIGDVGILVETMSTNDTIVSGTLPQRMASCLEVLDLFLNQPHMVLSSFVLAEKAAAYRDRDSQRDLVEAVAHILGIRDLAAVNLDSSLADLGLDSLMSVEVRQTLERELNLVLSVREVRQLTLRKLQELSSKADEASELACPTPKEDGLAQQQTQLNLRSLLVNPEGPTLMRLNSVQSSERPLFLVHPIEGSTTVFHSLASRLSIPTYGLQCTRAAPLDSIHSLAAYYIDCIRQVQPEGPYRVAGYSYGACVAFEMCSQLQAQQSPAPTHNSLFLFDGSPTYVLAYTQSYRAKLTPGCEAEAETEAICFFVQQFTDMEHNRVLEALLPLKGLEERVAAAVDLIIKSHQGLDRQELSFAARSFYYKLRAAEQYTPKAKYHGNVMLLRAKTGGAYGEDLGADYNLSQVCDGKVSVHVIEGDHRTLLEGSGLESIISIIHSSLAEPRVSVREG
Assay: FAS thioesterase domain inhibitors, dose response, biochemical, kinetic fluorescence intensity (AID 624326);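 note: rate of fluorescence rise from hydrolysis of a fluorogenic O-methyl fluorescein ester substrate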
Format: functional
Details: not given

IC50	Compound
0.176 µM (active)	C[C@H](NC(=O)c1[nH]cnc1C(=O)N[C@@H](CCCCNC(=O)OC(C)(C)C)C(=O)OC(C)(C)C)C(=O)OCc1ccccc1
2.4 µM (active)	O=C(CSc1nc2ccccc2n1S(=O)(=O)c1cccc([N+](=O)[O-])c1)NCCc1ccccc1
12.3 µM (active)	COc1ccc(C(=O)Nc2cc([N+](=O)[O-])ccc2N2CCCC2)cc1
18.1 µM (active)	O=C(NCCN1C(=O)S/C(=C\c2ccccc2)C1=O)C1CCN(S(=O)(=O)c2cccs2)CC1
6.41 µM (active)	COc1ccccc1NC(=O)COC(=O)c1cc([N+](=O)[O-])ccc1N1CCCC1
7.4 µM (active)	O=C(O)CC(NC(=O)C(c1ccccc1)c1ccccc1)c1cccc([N+](=O)[O-])c1 (stereo not given)
7.99 µM (active)	CN(CC(=O)Nc1ccc(F)cc1)C(=O)COC(=O)c1cc([N+](=O)[O-])ccc1N1CCOCC1

Compound	IC50
Cc1cc(C)c(C#N)c(SCC(=O)c2ccc(Cl)cc2Cl)n1	4.77 µM (active)

Biological target: T1, Fatty acid synthase
Assay: FAS thioesterase domain inhibitors, dose response, biochemical, endpoint fluorescence intensity, uHTS hits (AID 624327);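 note: fluorescence from hydrolysis of an O-methyl fluorescein acyl ester substrate by the enzyme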
Format: functional
Details: not given

IC50	Compound
0.349 µM (active)	C[C@H](NC(=O)c1[nH]cnc1C(=O)N[C@@H](CCCCNC(=O)OC(C)(C)C)C(=O)OC(C)(C)C)C(=O)OCc1ccccc1
3.67 µM (active)	O=C(CSc1nc2ccccc2n1S(=O)(=O)c1cccc([N+](=O)[O-])c1)NCCc1ccccc1
15.1 µM (active)	COc1ccc(C(=O)Nc2cc([N+](=O)[O-])ccc2N2CCCC2)cc1
16.2 µM (active)	O=C(NCCN1C(=O)S/C(=C\c2ccccc2)C1=O)C1CCN(S(=O)(=O)c2cccs2)CC1
5 µM (active)	COc1ccccc1NC(=O)COC(=O)c1cc([N+](=O)[O-])ccc1N1CCCC1
9.02 µM (active)	O=C(O)CC(NC(=O)C(c1ccccc1)c1ccccc1)c1cccc([N+](=O)[O-])c1 (stereo not given)
6.68 µM (active)	CN(CC(=O)Nc1ccc(F)cc1)C(=O)COC(=O)c1cc([N+](=O)[O-])ccc1N1CCOCC1

Compound	IC50
Cc1cc(C)c(C#N)c(SCC(=O)c2ccc(Cl)cc2Cl)n1	7.15 µM (active)
